Assay results reported in patent US10941137B2, “Difluoromethyl-phenyl triazoles” (Boehringer Ingelheim International GmbH, priority 2018, dated 2021).

System: human MDR1 P-gp
Assay: Efflux in MDCK cells transfected with the human MDR1 gene (MDCK-PGP permeability)
Type: in vitro ADME, canine
Details: dog, pH 7.4, 37° C.; for efflux ratio: PEBA/PEAB; for Papp A→B: apical-to-basal apparent permeability (PEAB)
Protocol: Assessment of Efflux in Madin-Darby Canine Kidney (MDCK) Cells Transfected with the 30 Human MDR1 Gene to Assess Brain Penetration (Drug Metabolism and Disposition February 2008, 36 (2) 268-275; DOI: https://doi.org/10.1124/dmd.107.017434) Apparent permeability coefficients (PE) of the compounds across the MDCK-MDR1 cell monolayers are measured (pH 7.4, 37° C.) in apical-to-basal (AB) and basal-to-apical (BA) transport direction. AB permeability (PEAB) represents drug absorption from the blood into the 35 brain and BA permeability (PEBA) drug efflux from the brain back into the blood via both passive permeability as well as active transport mechanisms mediated by efflux and uptake transporters that are expressed on the MDCK-MDR1 cells, predominantly by the overexpressed human MDR1 P-gp. The compounds are assigned to permeability/absorption classes by comparison of the AB permeabilities with the AB permeabilities of reference compounds with known in vitro permeability and oral absorption in the human. Identical or similar permeabilities in both transport directions indicate passive permeation, vectorial permeability points to additional active transport mechanisms. Higher PEBA than PEAB indicates the involvement of active efflux mediated by MDR1 P-gp. Active transport is concentration-dependently saturable.
MDCK-MDR1 cells (1-2×10e5 cells/1 cm2 area) are seeded on filter inserts (Costar transwell polycarbonate or PET filters, 0.4 μm pore size) and cultured (DMEM) for 7 days. Subsequently, the MDR1 expression is boosted by culturing the cells with 5 mM sodium butyrate in full medium for 2 days. Compounds are dissolved in appropriate solvent (like DMSO, 1-20 mM stock solutions). Stock solutions are diluted with HTP-4 buffer (128.13 mM NaCl, 5.36 mM KCl, 1 mM MgSO4, 1.8 mM CaCl2, 4.17 mM NaHCO3, 1.19 mM Na2HPO4×7H2O, 0.41 mM NaH2PO4xH2O, 15 mM HEPES, 20 mM glucose, 0.25% BSA, pH 7.4) to prepare the transport solutions (0.1-300 μM compound, final DMSO <=0.5%). The transport solution (TL) is applied to the apical or basolateral donor side for measuring A-B or B-A permeability (3 filter replicates), respectively. The receiver side contains the same buffer as the donor side. Samples are collected at the start and end of experiment from the donor and at various time intervals for up to 2 hours also from the receiver side for concentration measurement by HPLC-MS/MS or scintillation counting. Sampled receiver volumes are replaced with fresh receiver solution.

| SMILES | efflux ratio | Papp A→B [×10⁻⁶ cm/s] |
| --- | --- | --- |
| Cc1nnn(-c2ccc(C(F)F)cc2)c1COc1ccc(-n2cc(C(F)(F)F)cn2)nn1 [Example 25] | 0.3 | 56.1 |
| COC(=O)c1cn(-c2ccc(OCc3c(C)nnn3-c3ccc(C(F)F)cc3)nn2)cn1 [Example 29] | 2.8 | 18.8 |
| Cc1nnn(-c2ccc(C(F)F)cc2)c1COc1ccc(-n2ccc(C(N)=O)n2)nn1 [Example 21] | 1.2 | 25 |
| Cc1nnn(-c2ccc(C(F)F)cc2)c1COc1ccc(-n2cnc(C[N+](C)(C)C)c2)nn1.O=C([O-])C(F)(F)F [Example 36, ({1-[6-({1-[4-(difluoromethyl)phenyl]-4-methyl-1H-1,2,3-triazol-5-yl}methoxy)pyridazin-3-yl]-1H-imidazol-4-yl}methyl)trimethylazanium trifluoroacetate] | 0.5 | 0.6 |
| Cc1cc(-c2ccc(OCc3c(C)nnn3-c3ccc(C(F)F)cc3)nn2)cnn1 [Example 11] | 3.7 | 18.8 |
| Cc1nnn(-c2ccc(C(F)F)cc2)c1COc1ccc(-n2ccc(C(F)(F)F)n2)nn1 [Example 24] | 0.4 | 51.3 |
| Cc1nnn(-c2ccc(C(F)F)cc2)c1COc1ccc(-c2cnn(C3CC3)c2)nn1 [Example 9] | 0.8 | 42.4 |
| Cc1nnn(-c2ccc(C(F)F)cc2)c1COc1ccc(-n2cnc(C(F)F)c2)nn1 [Example 15] | 1.1 | 31.8 |
| CC(=O)c1cn(-c2ccc(OCc3c(C)nnn3-c3ccc(C(F)F)cc3)nn2)cn1 [Example 32] | 3.4 | 17.6 |
| CNC(=O)c1cn(-c2ccc(OCc3c(C)nnn3-c3ccc(C(F)F)cc3)nn2)cn1 [Example 14] | 3.8 | 14.6 |
| Cc1ncc(-c2ccc(OCc3c(C)nnn3-c3ccc(C(F)F)cc3)nn2)o1 [Example 6] | 0.7 | 67.8 |
| Cc1nnn(-c2ccc(C(F)F)cc2)c1COc1ccc(-n2cnc(Cl)c2)nn1 [Example 18] | 1.1 | 28.5 |
| Cc1nnn(-c2ccc(C(F)F)cc2)c1COc1ccc(-n2ccc(C#N)n2)nn1 [Example 20] | 0.6 | 52 |
| Cc1nnn(-c2ccc(C(F)F)cc2)c1COc1ccc(-n2cnc(C(=O)O)c2)nn1 [Example 37, 1-[6-({1-[4-(difluoromethyl)phenyl]-4-methyl-1H-1,2,3-triazol-5-yl}methoxy)pyridazin-3-yl]-1H-imidazole-4-carboxylic acid] | 0.8 | 0.7 |
| CCn1cc(-c2ccc(OCc3c(C)nnn3-c3ccc(C(F)F)cc3)nn2)cn1 [Example 7] | 2.7 | 17.7 |
| Cc1nnn(-c2ccc(C(F)F)cc2)c1COc1ccc(-c2cncnc2)nn1 [Example 22] | 1.1 | 49.6 |
| Cc1ncn(-c2ccc(OCc3c(C)nnn3-c3ccc(C(F)F)cc3)nn2)n1 [Example 33] | 0.9 | 52.2 |
| COc1ncc(-c2ccc(OCc3c(C)nnn3-c3ccc(C(F)F)cc3)nn2)cn1 [Example 3] | 0.6 | 59.7 |
